From patent publication US20170058314A1, “NOVEL METHODOLOGY FOR IDENTIFYING ANTI-PERSISTER ACTIVITY AND ANTIMICROBIAL SUSCEPTIBILITY FOR BORRELIA BURGDORFERI AND OTHER BACTERIA” (priority 2014, published 2017)
In brackets after ≈: the same amount, converted by molar mass. Read-outs that look alike come from different tables or passages of the source.

Key:
[1] = tested on: E. coli strains (W3110, UTI89, CFT073, KTE181); experiment: Rapid SYBR Green/PI antibiotic susceptibility test; type: cell-based, Escherichia coli; conditions: for percent killed, sensitive strain W3110: ampicillin 100 μg/mL, others 25 μg/mL; for percent killed, resistant strain KTE181: ampicillin 100, trimethoprim 25, streptomycin 25 μg/mL; for cut-off (averaged proportion of killed cells) for resistant strains / cut-off (averaged proportion of killed cells) for susceptible strains: ampicillin, trimethoprim 5 μg/mL
[2] = tested on: log phase and stationary phase B. burgdorferi culture; experiment: Antibiotic exposure assay, SYBR Green I/PI (drugs alone and combinations); conditions: for viability at 10 µg/mL: Borreliella burgdorferi, 168 h
Procedure: (§1) To qualitatively determine the effect of antibiotics, 10 μL of each compound from the pre-diluted plate or pre-diluted stock was added to stationary phase B. burgdorferi culture in the 96-well plate. The final volume per well was adjusted to 100 μL at a concentration of 10 μg/mL for each antibiotic. Plates were sealed and placed in a 33° C. incubator for 7 days. The SYBR Green I/PI viability assay was used to assess the live and dead cells after antibiotic exposure as described (Feng, Wang, Shi, et al., 2014). Briefly, 10 μL of SYBR Green I (10,000×stock, Invitrogen) was mixed with 30 μL propidium iodide (PI, 20 mM) into 1.0 mL of sterile dH2O. Then, 10 μL of staining mixture was added to each well and mixed thoroughly. The plates were incubated at room temperature in the dark for 15 minutes followed by plate reading at excitation wavelength at 485 nm and the fluorescence intensity at 535 nm (green emission) and 635 nm (red emission) in microplate reader (HTS 7000 plus Bio Assay Reader, PerkinElmer Inc., USA). With least-square fitting analysis, the regression equation and regression curve of the relationship between percentage of live bacteria and green/red fluorescence ratios was obtained. The regression equation was used to calculate the percentage of live cells in each well of the 96-well plate.
To qualitatively determine the effect of antibiotics, 10 μL of each compound (final concentration 50 μM) from the pre-diluted plate or pre-diluted stock was added to round body form or stationary phase B. burgdorferi culture in the 96-well plate. The final volume per well was adjusted to 100 μL. Plates were sealed and placed in a 33° C. incubator for 7 days. The SYBR Green I/PI viability assay was used to assess the live and dead cells after antibiotic exposure as described (Feng, Wang, Shi, et al., 2014). Briefly, 10 μL of SYBR Green I (10,000×stock, Invitrogen) was mixed with 30 μL propidium iodide (PI, 20 mM, Sigma-Aldrich) into 1.0 mL of sterile dH2O. Then, 10 μL staining mixture was added to each well and mixed thoroughly. The plates were incubated at room temperature in the dark for 15 minutes followed by plate reading at excitation wavelength at 485 nm and the fluorescence intensity at 535 nm (green emission) and 635 nm (red emission) in microplate reader (HTS 7000 plus Bio Assay Reader, PerkinElmer Inc., USA). With least-square fitting analysis, the regression equation and regression curve of the relationship between percentage of live and dead bacteria as shown in green/red fluorescence ratios was obtained. The regression equation was used to calculate the percentage of live cells in each well of the 96-well plate.
Round body form and ten day old stationary phase (in brackets) B. burgdorferi culture was treated with 10 μg/mL drugs or their combinations for 7 days. Residual viable B. burgdorferi was calculated according to the regression equation and ratio of Green/Red fluorescence obtained by SYBR Green I/PI assay as described (Feng, Wang, Shi, et al., 2014). Direct microscopy counting was employed to rectify the results of the SYBR Green I/PI assay. […] Abbreviation: Dox, doxcycline; CefP, cefoperazone; DAP, daptomycin; CefM, cefmetazole; Scp, sulfachlorpyridazine; Art, artemisinin; Nft, nitrofurantoin.

[3] = tested on: round body form of B. burgdorferi; experiment: SYBR Green I/PI assay on amoxicillin-induced round body form; conditions: for viability at 50 µM: Borreliella burgdorferi, 168 h, read-out: Residual viable cells (SYBR Green I/PI assay)
[4] = tested on: stationary phase B. burgdorferi persisters (strain B31); experiment: SYBR Green I/PI viability assay (plate reader), FDA-approved drug library screen; conditions: for Ratio of Green/Red fluorescence, Primary screening / Ratio of Green/Red fluorescence, Rescreening (first column) / Ratio of Green/Red fluorescence, Rescreening (second column): 50 μM, 7 days, stationary phase; for viability at 50 µM: Borreliella burgdorferi, 168 h, read-out: Residual viable cells (regression equation, SYBR Green I/PI assay)
[5] = tested on: stationary phase B. burgdorferi persisters (strain B31); experiment: epifluorescence microscope counting after SYBR Green I/PI staining, FDA drug screen; conditions: Borreliella burgdorferi, 168 h, read-out: Residual viable cells (epifluorescence microscope counting)
[6] = tested on: B. burgdorferi (growing, strain B31); experiment: MIC determination, standard microdilution method; type: cell-based, Borrelia burgdorferi; conditions: for sensitivity of log phase / multiplying B. burgdorferi (words, FIG. 12): MIC test
[7] = tested on: B. burgdorferi (growing, strain B31); conditions: actively growing B. burgdorferi; Feng, Wang, Shi, et al., 2014; cited from earlier work
[8] = tested on: B. burgdorferi log and stationary phase cultures; experiment: epi-fluorescence microscope counting after antibiotic exposure (persister frequency, planktonic forms); type: cell-based, Borrelia burgdorferi; conditions: 10-day-old stationary phase culture, 10 μg/mL, 7 days, FIG. 17A
Procedure: Specimens were examined on a Nikon Eclipse E800 microscope equipped with differential interference contrast (DIC) and epi-fluorescence illumination, and recorded with a Spot slider color camera. Cell proliferation assays were performed by direct counting using a bacterial counting chamber (Hausser Scientific Partnership) and DIC microscopy. SYBR Green I/PI assay was performed to assess the viability of B. burgdorferi. The ratio of live (green) and dead (red) B. burgdorferi was calculated by counting these cells using a bacterial counting chamber and epi-fluorescence microscopy. The three representative images of every sample were captured for quantitative analysis. Image Pro-Plus software was applied for measuring the biomass (fluorescence intensity) of different forms (spirochetes, round body, and microcolony) of B. burgdorferi as previously described (Shopov and Williams, 2000).
as §1
Therefore, the frequency of B. burgdorferi persisters in log phase and stationary phase cultures was assessed using the SYBR Green I/PI viability assay after exposure of the cultures to antimicrobials. E. coli culture was used as a control after exposure to antibiotics to validate the SYBR Green I/PI viability assay for persister frequency assessment.

[9] = tested on: stationary phase B. burgdorferi; experiment: Subculture test of drug-treated stationary phase B. burgdorferi; type: cell-based, Borrelia burgdorferi
Procedure: Seven-day-old B. burgdorferi culture (1×10^7 spirochetes/mL) (500 μL) was treated with drugs or drug combinations in Eppendorf tubes. After incubation at 33° C. for 7 days without shaking, the cells were collected by centrifugation and rinsed with 1 mL fresh BSK-H medium followed by resuspension in 500 μL fresh BSK-H medium without antibiotics. Then 50 μL of cell suspension was transferred to 1 mL fresh BSK-H medium for subculture at 33° C. for 2 weeks. Cell proliferation was assessed using SYBR Green I/PI assay and bacterial counting chamber (Hausser Scientific Partnership) by microscopy as described above.

[10] = tested on: round body form of B. burgdorferi; experiment: Subculture test of drug-treated round body form
Procedure: For induction of round body form of B. burgdorferi, B. burgdorferi spirochetes (1×10^5 spirochetes/mL) were cultured in BKS-H medium for 6 days without shaking. After the 6-day incubation, amoxicillin at a final concentration of 50 μg/mL was added to the culture for round body form induction. After 72 h induction at 33° C., the round body forms of B. burgdorferi were examined by the microscopy. The round body cells (100 μL) were transferred to 96-well tissue culture microplates for evaluation of the effects of antibiotic treatment.

[11] = read-out: Live Cell % (residual viable B. burgdorferi)
[12] = 10 μg/mL drugs or combinations, 7 days
[13] = read-out: Live Cell % (residual viable B. burgdorferi), ten-day-old stationary phase culture enriched with micro-colonies, 10 μg/mL each drug, 7 days
[14] = 10 μg/mL, 7 days treatment, then subculture

SMILES: COc1cc(Cc2cnc(N)nc2N)cc(OC)c1OC [trimethoprim]
- percent killed, sensitive strain W3110 ([1]; 30 minutes): 47%
- percent killed, resistant strain KTE181 ([1]; 30 minutes): 1%
- percent killed, resistant strain CFT073 ([1]; 30 minutes, trimethoprim 25 μg/mL): 22%
- cut-off (averaged proportion of killed cells) for resistant strains ([1]; streptomycin 100 μg/mL): -0.2
- cut-off (averaged proportion of killed cells) for susceptible strains ([1]; streptomycin 100 μg/mL): −0.5

SMILES: CN[C@H](CC(C)C)C(=O)N[C@H]1C(=O)N[C@@H](CC(N)=O)C(=O)N[C@H]2C(=O)N[C@H]3C(=O)N[C@H](C(=O)N[C@H](C(=O)O)c4cc(O)cc(O)c4-c4cc3ccc4O)[C@H](O)c3ccc(c(Cl)c3)Oc3cc2cc(c3O[C@@H]2O[C@H](CO)[C@@H](O)[C@H](O)[C@H]2O[C@H]2C[C@](C)(N)[C@H](O)[C@H](C)O2)Oc2ccc(cc2Cl)[C@H]1O [Vancomycin]
- viability at 10 µg/mL [2, 11]: 64%
- viability at 50 µM [3]: 38%
- Ratio of Green/Red fluorescence, Primary screening [4]: 6.65
- Ratio of Green/Red fluorescence, Rescreening (first column) [4]: 6.58
- Ratio of Green/Red fluorescence, Rescreening (second column) [4]: 6.37
- viability at 50 µM [4]: 38%
- viability at 50 µM [5]: 48%

SMILES: CC(C)/N=c1\cc2n(-c3ccc(Cl)cc3)c3ccccc3nc-2cc1Nc1ccc(Cl)cc1 [Clofazimine]
- MIC ([6]; Borreliella burgdorferi, growing B. burgdorferi, read-out: MIC): 6.25 mg/L (≈ 13.2 µM)
- sensitivity of log phase / multiplying B. burgdorferi (words, FIG. 12) [6]: less potent
- viability at 10 µg/mL [2, 11]: 73%
- MIC (previous study) [7]: 6.25 mg/L (≈ 13.2 µM)
- viability at 50 µM [3]: 32%
- Ratios of green/red fluorescence, Primary screening ([3]; round body form, 50 μM, 7 days): 6.29
- Ratios of green/red fluorescence, Rescreening (first column) ([3]; round body form, 50 μM, 7 days): 6.22
- Ratios of green/red fluorescence, Rescreening (second column) ([3]; round body form, 50 μM, 7 days): 6.24
- Ratio of Green/Red fluorescence, Primary screening [4]: 6.56
- Ratio of Green/Red fluorescence, Rescreening (first column) [4]: 6.23
- Ratio of Green/Red fluorescence, Rescreening (second column) [4]: 6.02
- viability at 50 µM [4]: 32%
- viability at 50 µM [5]: 45%

SMILES: CN(C)c1cc(NC(=O)CNC(C)(C)C)c(O)c2c1C[C@H]1C[C@H]3[C@H](N(C)C)C(O)=C(C(N)=O)C(=O)[C@@]3(O)C(O)=C1C2=O [Tigecycline]
- viability at 10 µg/mL [2, 11]: 67%
- Ratio of Green/Red fluorescence, Primary screening [4]: 6.98
- Ratio of Green/Red fluorescence, Rescreening (first column) [4]: 7.06
- Ratio of Green/Red fluorescence, Rescreening (second column) [4]: 6.96
- viability at 50 µM [4]: 51%
- viability at 50 µM [5]: 58%

SMILES: CCN1CCN(C(=O)N[C@@H](C(=O)N[C@@H]2C(=O)N3C(C(=O)O)=C(CSc4nnnn4C)CS[C@H]23)c2ccc(O)cc2)C(=O)C1=O [Cefoperazone]
- sensitivity of log phase / multiplying B. burgdorferi (words, FIG. 12) [6]: very sensitive
- Live cell %, ten day old stationary phase culture (in brackets) [2, 12]: 64%
- viability at 10 µg/mL [2, 13]: 64%
- planktonic form cells remaining green (live) [8]: 52%
- G/R ratio immediately after treatment ([9]; 10 μg/mL, 7 days): 6.60
- G/R ratio after 7 day subculture [9, 14]: 6.13
- G/R ratio after 15 day subculture [9, 14]: 6.95
- Spirochetes after 7 day subculture (microscope counting) [9, 14]: 1.5 × 10^6
- Spirochetes after 15 day subculture (microscope counting) [9, 14]: 5 × 10^6
- viability at 10 µg/mL ([9]; Borreliella burgdorferi, 168 h, read-out: Residual viable cells (epifluorescence microscope counting)): 61%
- Spirochetes number After 10 day subculture [10, 14]: 9 × 10^5
- Spirochetes number After 20 day subculture [10, 14]: 4 × 10^6
- viability at 10 µg/mL ([10]; Borreliella burgdorferi, 168 h, read-out: Residual viable cells): 33%
- Live cell %, round body form [3, 12]: 30%
- Ratio of Green/Red fluorescence, Primary screening [4]: 6.54
- Ratio of Green/Red fluorescence, Rescreening (first column) [4]: 6.32
- Ratio of Green/Red fluorescence, Rescreening (second column) [4]: 6.23
- viability at 50 µM [4]: 34%
- viability at 50 µM [5]: 37%

SMILES: [H]/N=C(/N)N[C@H]1[C@H](O)[C@@H](O)[C@H](O[C@@H]2O[C@@H](C)[C@](O)(C=O)[C@H]2O[C@@H]2O[C@@H](CO)[C@H](O)[C@@H](O)[C@@H]2NC)[C@@H](N/C(N)=N\[H])[C@@H]1O [Streptomycin]
- percent killed, sensitive strain W3110 ([1]; 30 minutes): 29%
- percent killed, resistant strain KTE181 ([1]; 30 minutes): 0%
- cut-off (averaged proportion of killed cells) for resistant strains ([1]; streptomycin 100 μg/mL): −0.1
- cut-off (averaged proportion of killed cells) for susceptible strains ([1]; streptomycin 100 μg/mL): −0.6
- cut-off (averaged proportion of killed cells) for intermediate resistance ([1]; streptomycin 100 μg/mL): −0.5
- Ratio of Green/Red fluorescence, Primary screening [4]: 6.72
- Ratio of Green/Red fluorescence, Rescreening (first column) [4]: 6.93
- Ratio of Green/Red fluorescence, Rescreening (second column) [4]: 6.76
- viability at 50 µM [4]: 45%

SMILES: CC[C@H]1OC(=O)[C@H](C)[C@@H](O[C@H]2C[C@@](C)(OC)[C@@H](O)[C@H](C)O2)[C@H](C)[C@@H](O[C@@H]2O[C@H](C)C[C@H](N(C)C)[C@H]2O)[C@](C)(OC)C[C@@H](C)C(=O)[C@H](C)[C@@H](O)[C@]1(C)O [Clarithromycin]
- viability at 10 µg/mL [2, 13]: 63%
- Ratio of Green/Red fluorescence, Primary screening [4]: 7.70
- Ratio of Green/Red fluorescence, Rescreening (first column) [4]: 7.36
- Ratio of Green/Red fluorescence, Rescreening (second column) [4]: 7.59
- viability at 50 µM [4]: 65%
- viability at 50 µM [5]: 70%
